Experimental data reported in EPA's ToxRefDB 2.

How the values were obtained:
[1] = tested on: rabbit; details: Prenatal developmental toxicity study, new zealand white, Oral, Gavage/Intubation, dose end: 18 GD
[2] = tested on: rabbit; details: Prenatal developmental toxicity study, new zealand white, Oral, Gavage/Intubation, dose end: 19 GD
[3] = tested on: rat; details: Multigenerational reproductive toxicity study, sprague dawley, Oral, Feed, dose end: 2 generation
[4] = tested on: rat; details: Prenatal developmental toxicity study, sprague dawley, Oral, Gavage/Intubation, dose end: 15 GD
[5] = tested on: rat; details: Combined chronic toxicity/carcinogenicity, sprague dawley, Oral, Feed, dose end: 24 month, group: systemic
[6] = tested on: dog; details: Chronic toxicity; beagle; Oral; Feed; dose end: 52 week; group: systemic; systemic / hematology / erythrocyte (rbc) count differential / erythrocyte (rbc) + systemic / hematology / platelet / platelet + systemic / …
[7] = tested on: mouse; details: Multigenerational reproductive toxicity study; cd1; Oral; Feed; dose end: 1 generation; group: parental; systemic / in life observation / food consumption / food consumption
[8] = tested on: rat; details: Combined chronic toxicity/carcinogenicity; sprague dawley; Oral; Feed; dose end: 118 week; group: systemic; systemic / in life observation / clinical signs / feces, discoloration
[9] = tested on: rat; details: Prenatal developmental toxicity study, Osborne-Mendel, Oral, Water, dose end: 20 GD
[10] = tested on: rat; details: Prenatal developmental toxicity study; other; Oral; Gavage/Intubation; dose end: 19 GD; group: developmental; developmental / developmental malformation / ureter / hydroureter
[11] = tested on: rat; details: Multigenerational reproductive toxicity study, sprague dawley, Oral, Feed, dose end: 1 generation
[12] = tested on: mouse; details: Combined chronic toxicity/carcinogenicity, cd1, Oral, Feed, dose end: 104 week, group: systemic
[13] = group: developmental, developmental / developmental malformation / bone / delayed ossification + developmental / developmental malformation / bone / fused + …
[14] = group: maternal, reproductive / offspring survival early / live fetuses / live fetuses + systemic / organ weight / uterus / nos
[15] = group: developmental, developmental / developmental malformation / bone / fused
[16] = group: maternal, systemic / in life observation / body weight / body weight gain
[17] = group: offspring, systemic / in life observation / body weight / offspring (pup) weight
[18] = group: parental, systemic / in life observation / body weight / body weight + systemic / in life observation / body weight / body weight gain + systemic / in…
[19] = group: developmental, developmental / developmental malformation / bone / incomplete ossification
[20] = group: maternal, systemic / in life observation / clinical signs / alopecia + systemic / in life observation / clinical signs / blood around eyes and nose + …
[21] = systemic / clinical chemistry / calcium / calcium + systemic / clinical chemistry / protein / protein + systemic / in life observation / …
[22] = systemic / organ weight / liver / relative to body weight
[23] = group: developmental, developmental / developmental malformation / bone / bipartite ossification + developmental / developmental malformation / bone / incomplete …
[24] = group: maternal, systemic / in life observation / water consumption / water consumption + reproductive / reproductive performance / reproductive performance …
[25] = group: offspring, developmental / developmental landmark / vaginal opening / vaginal opening + systemic / in life observation / clinical signs / nocturnal …
[26] = group: offspring, developmental / offspring survival late / [other] / [other] + developmental / developmental landmark / vaginal opening / vaginal opening + …
[27] = group: parental, systemic / in life observation / body weight / body weight
[28] = group: reproductive, reproductive / reproductive performance / pregnancy / pregnancy
[29] = systemic / organ weight / thyroid gland / absolute + systemic / organ weight / thyroid gland / relative to body weight

## C#CCOS(=O)OC1CCCCC1Oc1ccc(C(C)(C)C)cc1 (stereo unspecified) [Propargite]
[1]; group: developmental, developmental / developmental malformation / bone / delayed ossification
  LEL: 6 mg/kg/day
[1]; [13]
  LOAEL: > 18 mg/kg/day
  NEL: 2 mg/kg/day
  NOAEL: ≥ 18 mg/kg/day
[1]; [14]
  LEL: 2 mg/kg/day
  NEL: < 2 mg/kg/day
[1]; group: maternal, systemic / in life observation / body weight / body weight gain + reproductive / offspring survival early / live fetuses / live fetuses
  LOAEL: 6 mg/kg/day
[1]; group: maternal, systemic / in life observation / body weight / body weight gain + reproductive / reproductive performance / implantations / implantations + …
  NOAEL: 2 mg/kg/day
[2]; [15]
  LEL: 10 mg/kg/day
  LOAEL: 10 mg/kg/day
  NEL: 8 mg/kg/day
  NOAEL: 8 mg/kg/day
[2]; [16]
  LEL: 8 mg/kg/day
  LOAEL: 8 mg/kg/day
  NEL: 6 mg/kg/day
  NOAEL: 6 mg/kg/day
[3]; [17]
  LEL: 40 mg/kg/day
  LOAEL: 40 mg/kg/day
  NEL: 20 mg/kg/day
  NOAEL: 20 mg/kg/day
[3]; [18]
  LEL: 20 mg/kg/day
  LOAEL: 20 mg/kg/day
  NEL: 4 mg/kg/day
  NOAEL: 4 mg/kg/day
[4]; group: developmental, developmental / developmental malformation / bone / absent + developmental / developmental malformation / bone / small
  LOAEL: 25 mg/kg/day
[4]; [19]
  LEL: 6 mg/kg/day
  NEL: < 6 mg/kg/day
[4]; group: developmental, developmental / developmental malformation / bone / incomplete ossification + developmental / developmental malformation / bone / absent + …
  NOAEL: 6 mg/kg/day
[4]; [20]
  LEL: 105 mg/kg/day
  LOAEL: > 450 mg/kg/day
  NEL: 25 mg/kg/day
  NOAEL: ≥ 450 mg/kg/day
[5]; [21]
  LOAEL: 19.2 mg/kg/day
  NOAEL: 3.83 mg/kg/day
[5]; [22]
  LEL: 2.95 mg/kg/day
  NEL: < 2.95 mg/kg/day
[6]
  LEL: 38 mg/kg/day
  LOAEL: 38 mg/kg/day
  NEL: 5 mg/kg/day
  NOAEL: 5 mg/kg/day

## COc1cc(S(=O)(=O)[O-])c(C)cc1N=Nc1c(O)ccc2cc(S(=O)(=O)[O-])ccc12.[Na+].[Na+]
[7]
  LEL: 2930 mg/kg/day
  LOAEL: > 2930 mg/kg/day
  NEL: 1420 mg/kg/day
  NOAEL: ≥ 2930 mg/kg/day
[8]
  LEL: 701 mg/kg/day
  LOAEL: > 2830 mg/kg/day
  NEL: 180 mg/kg/day
  NOAEL: ≥ 2830 mg/kg/day
[9]; [23]
  LEL: 260 mg/kg/day
  LOAEL: > 260 mg/kg/day
  NEL: < 260 mg/kg/day
  NOAEL: ≥ 260 mg/kg/day
[9]; [24]
  LEL: 260 mg/kg/day
  LOAEL: > 260 mg/kg/day
  NEL: < 260 mg/kg/day
  NOAEL: ≥ 260 mg/kg/day
[10]
  LEL: 200 mg/kg/day
  LOAEL: > 200 mg/kg/day
  NEL: 100 mg/kg/day
  NOAEL: ≥ 200 mg/kg/day
[11]; [25]
  LEL: 1250 mg/kg/day
  NEL: < 1250 mg/kg/day
[11]; [26]
  LOAEL: > 5000 mg/kg/day
  NOAEL: ≥ 5000 mg/kg/day
[11]; [27]
  LEL: 1250 mg/kg/day
  LOAEL: > 5000 mg/kg/day
  NEL: < 1250 mg/kg/day
  NOAEL: ≥ 5000 mg/kg/day
[11]; [28]
  LEL: 1250 mg/kg/day
  LOAEL: > 5000 mg/kg/day
  NEL: < 1250 mg/kg/day
  NOAEL: ≥ 5000 mg/kg/day
[12]; systemic / in life observation / food consumption / food consumption
  LEL: 1880 mg/kg/day
[12]; systemic / in life observation / food consumption / food consumption + systemic / pathology microscopic / lymph node / lymphoma nos
  NEL: 507 mg/kg/day
[12]; [29]
  LOAEL: > 7320 mg/kg/day
  NOAEL: ≥ 7320 mg/kg/day
